PubChem BioAssay (NCI)
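Interpolation was linear, between the two tested concentrations surrounding the appropriate level; five concentrations were tested over 48 hours in 96-well plates. GI50 is the concentration that inhibits growth by half. TGI is the concentration that stops growth completely.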 Where a SMILES comes first, the peptide text is derived from it. The star is where a group is joined. Boc = CC(C)(C)OC(=O)*

How the values were obtained:
Assay in all cases: growth of human tumour cells (NCI), 48 h
[1] = test system: A549 NSCLC
[2] = test system: ACHN renal
[3] = test system: NCI-H522 lung
[4] = test system: SF-295 CNS
[5] = test system: BT-549 breast
[6] = test system: SNB-19 CNS
[7] = test system: UACC-257 melanoma
[8] = test system: EKVX NSCLC
[9] = test system: CAKI-1 renal
[10] = test system: SK-MEL-2 melanoma

Compound	TGI [1]	TGI [2]	TGI [3]	TGI [4]	TGI [5]	TGI [6]	TGI [7]	TGI [8]	TGI [9]	TGI [10]	GI50 [2]	GI50 [3]	GI50 [4]	GI50 [5]	GI50 [6]	GI50 [8]	GI50 [9]
O=C1OC2(C(F)(F)F)Oc3ccccc3CN2C12CCCCC2 (stereo not given)	> 100 µM	38.1 µM	83.3 µM	86.8 µM	> 100 µM	> 100 µM	71.4 µM	> 100 µM	56.1 µM	–	–	–	–	–	–	–	–
Cc1cc2ccccc2n1CC(=O)N1CCCC1	> 100 µM	> 100 µM	> 100 µM	–	> 100 µM	> 100 µM	> 100 µM	> 100 µM	–	> 100 µM	–	–	–	–	–	–	–
COc1ccc(Oc2nc3ccc(C(F)(F)F)cc3nc2-c2ccccc2)cc1	–	> 100 µM	> 100 µM	> 100 µM	–	> 100 µM	> 100 µM	> 100 µM	> 100 µM	> 100 µM	–	–	–	–	–	–	–
COC(=O)C(Cc1c[nH]c2ccccc12)NC(=O)C(Cc1c[nH]c2ccccc12)NC(=O)C(Cc1c[nH]c2ccccc12)NC(=O)C(Cc1c[nH]c2ccccc12)NC(=O)OC(C)(C)C (stereo not given) (Boc-WWWW-OMe; configuration not given here)	> 100 µM	> 100 µM	> 100 µM	–	70.2 µM	> 100 µM	> 100 µM	–	> 100 µM	–	–	–	–	–	–	–	–
CSc1nc(NC2OCC(O)C(O)C2O)c(N)c(=O)n1C (stereo not given)	> 100 µM	–	> 100 µM	> 100 µM	–	> 100 µM	> 100 µM	> 100 µM	–	> 100 µM	–	–	–	–	–	–	–
CCc1nn(S(=O)(=O)c2ccc(C)cc2)c2c1CS(=O)(=O)CC2	> 100 µM	> 100 µM	–	> 100 µM	> 100 µM	> 100 µM	> 100 µM	> 100 µM	> 100 µM	> 100 µM	–	–	–	–	–	–	–
CC1(C)[C@@H](Cn2cnc3c(=O)[nH]c(N)nc32)CC[C@@]1(C)CO	> 100 µM	> 100 µM	–	> 100 µM	–	> 100 µM	> 100 µM	> 100 µM	> 100 µM	> 100 µM	–	–	–	–	–	–	–
Fc1ccc(C2CC(c3cccc(Nc4ccncc4)c3)=NN2c2cc(Cl)cc(Cl)c2)cc1 (stereo not given)	–	3.02 µM	3.9 µM	3.21 µM	3.63 µM	3.32 µM	–	3.38 µM	2.92 µM	–	1.66 µM	1.88 µM	1.77 µM	1.88 µM	1.74 µM	1.71 µM	1.54 µM
OCC(O)C1OC2CC1Nc1ccccc1N2 (stereo not given)	> 100 µM	> 100 µM	> 100 µM	> 100 µM	–	> 100 µM	> 100 µM	> 100 µM	> 100 µM	> 100 µM	–	–	–	–	–	–	–
COc1ccccc1NC(=S)N/N=C(/C)c1ccccn1	> 55.3 µM	12.9 µM	> 100 µM	> 100 µM	–	> 100 µM	–	> 100 µM	> 100 µM	> 88.7 µM	–	–	–	–	–	–	–
C[C@@H]1C[C@]2(C[C@@H](C)[C@H]3C(C[C@@]4(C)CCC[C@@H]5C6=C[C@H](CCC34C)OC6=CC(=O)OC5(C)C)O2)OC1=O (stereo not given in full)	> 51.5 µM	–	> 51.5 µM	> 51.5 µM	–	> 51.5 µM	> 51.5 µM	> 51.5 µM	> 51.5 µM	> 51.5 µM	–	–	–	–	–	–	–
